Measurements published in ChEMBL document CHEMBL1201862, “PubChem BioAssay data set” (2004).
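Growth conditions: 96-well plates. Treatment: test compound, 48 hours, 5 concentrations. Analysis: linear interpolation between bracketing concentrations; unreached endpoints set to highest concentration. GI50 is the concentration that inhibits growth by half.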 Calls of active or inactive are those of the source. Cut-off read from the data, not from the text of the source: active = GI50 up to about 1.1 µM and inactive = higher.

Experiments:
Test in all cases: growth of human tumour cells (NCI), 48 h
786-0 = test system: 786-0
A498 = test system: A498
A549 = test system: A549
BT-549 = test system: BT-549
CCRF-CEM = test system: CCRF-CEM
HCC 2998 = test system: HCC 2998
HT-29 = test system: HT-29
IGROV-1 = test system: IGROV-1
MDA-N = test system: MDA-N
NCI/ADR-RES = test system: NCI/ADR-RES
RPMI-8226 = test system: RPMI-8226
SK-OV-3 = test system: SK-OV-3
TK-10 = test system: TK-10
UACC-257 = test system: UACC-257
SR = test system: SR

Compound | GI50 (786-0) | GI50 (A498) | GI50 (A549) | GI50 (BT-549) | GI50 (CCRF-CEM) | GI50 (HCC 2998) | GI50 (HT-29) | GI50 (IGROV-1) | GI50 (MDA-N) | GI50 (NCI/ADR-RES) | GI50 (RPMI-8226) | GI50 (SK-OV-3) | GI50 (TK-10) | GI50 (UACC-257) | GI50 (SR)
CO[C@H]1C=C[C@@]23c4cc5c(cc4CO[C@]2(O)CN(C)[C@H]3C1)OCO5 | > 100 µM (inactive) | > 100 µM (inactive) | > 100 µM (inactive) | > 100 µM (inactive) | > 100 µM (inactive) | > 100 µM (inactive) | > 100 µM (inactive) | > 100 µM (inactive) | > 100 µM (inactive) | > 100 µM (inactive) | > 100 µM (inactive) | > 100 µM (inactive) | > 100 µM (inactive) | > 100 µM (inactive) | 
O=C1CC(CC(OCc2ccccc2)C(COCc2ccccc2)OCc2ccccc2)CC(=O)N1 (configuration not stated) | 32.4 µM (inactive) | 30.3 µM (inactive) | 27.4 µM (inactive) | 13 µM (inactive) | 37.1 µM (inactive) | 36.6 µM (inactive) | 24.7 µM (inactive) | 70.5 µM (inactive) | 30.1 µM (inactive) | 24.7 µM (inactive) | 34.5 µM (inactive) |  |  | 27.4 µM (inactive) | 34.3 µM (inactive)
C/C(=C1\N=C(c2ccccc2)OC1=O)c1ccccc1 |  | > 100 µM (inactive) | > 100 µM (inactive) | 0.61 µM (active) | > 100 µM (inactive) | > 100 µM (inactive) | > 100 µM (inactive) | > 100 µM (inactive) |  |  | > 100 µM (inactive) | > 100 µM (inactive) | > 100 µM (inactive) | > 100 µM (inactive) | > 100 µM (inactive)
CC(C)(C)NCC(O)c1ccc(O)c(CO)n1 (configuration not stated) | > 100 µM (inactive) | > 100 µM (inactive) | > 100 µM (inactive) | > 100 µM (inactive) |  | > 100 µM (inactive) | > 100 µM (inactive) | > 100 µM (inactive) | > 100 µM (inactive) | > 100 µM (inactive) | > 100 µM (inactive) | > 100 µM (inactive) | > 100 µM (inactive) | > 100 µM (inactive) | > 100 µM (inactive)
O=C(NC1C/C(=N/O)c2c(Br)sc(Br)c21)C(F)(F)F (configuration not stated) | 18.2 µM (inactive) | 24.5 µM (inactive) | 20 µM (inactive) | 32.1 µM (inactive) | 20.2 µM (inactive) | 22.6 µM (inactive) | 26.9 µM (inactive) | 94 µM (inactive) | 32.3 µM (inactive) | 19.3 µM (inactive) |  | 47.6 µM (inactive) | 36.3 µM (inactive) | 22.9 µM (inactive) | 
COc1ccc(C(CC(=O)c2ccc(O)cc2)C(C(=O)c2ccc(O)cc2)C(c2ccc(OC)cc2)C2C(=O)NC(=S)NC2=O)cc1 (configuration not stated) | 20.6 µM (inactive) | 38.9 µM (inactive) | 21.9 µM (inactive) | 18.5 µM (inactive) | 11.1 µM (inactive) |  | 27 µM (inactive) | 15.5 µM (inactive) | 18.8 µM (inactive) | 17.9 µM (inactive) | 22.6 µM (inactive) |  | 29.3 µM (inactive) | 17.5 µM (inactive) | 38 µM (inactive)
COC1OC(CS(=O)(=O)O)C(O)C(O)C1O (configuration not stated) |  | > 100 µM (inactive) |  | > 100 µM (inactive) | > 100 µM (inactive) | > 100 µM (inactive) | > 100 µM (inactive) | > 100 µM (inactive) | > 100 µM (inactive) | > 100 µM (inactive) | > 100 µM (inactive) | > 100 µM (inactive) | > 100 µM (inactive) | > 100 µM (inactive) | > 100 µM (inactive)
CCCS(=O)(=O)O |  | > 100 µM (inactive) | > 100 µM (inactive) | > 100 µM (inactive) | > 100 µM (inactive) |  | > 100 µM (inactive) | > 100 µM (inactive) |  | > 100 µM (inactive) | > 100 µM (inactive) | > 100 µM (inactive) | > 100 µM (inactive) | > 100 µM (inactive) | > 100 µM (inactive)
COc1cc([C@@H]2c3cc4c(cc3[C@@H](c3c(O)cc(O)c5c3O[C@H](c3ccc(O)c(O)c3)[C@@H](O)C5)[C@H]3COC(=O)[C@H]23)OCO4)cc(OC)c1O | > 100 µM (inactive) | > 100 µM (inactive) | > 100 µM (inactive) | > 100 µM (inactive) | 63.2 µM (inactive) | > 100 µM (inactive) | > 100 µM (inactive) | > 100 µM (inactive) | 34.7 µM (inactive) | > 100 µM (inactive) | 53 µM (inactive) | > 100 µM (inactive) | > 100 µM (inactive) | > 100 µM (inactive) | 
O=C(O)c1cc(-c2ccc3cc4c(cc3c2)OCO4)nc2ccccc12 | 30.7 µM (inactive) | 23.9 µM (inactive) | 21.1 µM (inactive) | 22.8 µM (inactive) | 11.3 µM (inactive) |  | 25.9 µM (inactive) | 29 µM (inactive) | 36 µM (inactive) | 40.7 µM (inactive) | 45.9 µM (inactive) | 44.7 µM (inactive) | 18.2 µM (inactive) | 5.41 µM (inactive) | 7.45 µM (inactive)
COc1ccc2nc3n(c2c1)C(=O)c1ccccc1-3 | > 100 µM (inactive) |  | > 100 µM (inactive) | > 10 µM (inactive) | > 100 µM (inactive) | > 100 µM (inactive) | > 100 µM (inactive) | > 100 µM (inactive) | > 100 µM (inactive) | > 100 µM (inactive) | > 100 µM (inactive) | 15.1 µM (inactive) | > 100 µM (inactive) | > 100 µM (inactive) | > 100 µM (inactive)
CC(SC(=S)N1CCOCC1)C(=O)Nc1nnc(-c2ccc(Cl)cc2)o1 (configuration not stated) | 27.9 µM (inactive) | 60.5 µM (inactive) | 34.5 µM (inactive) | > 100 µM (inactive) | < 0.01 µM (active) | > 100 µM (inactive) | 36.9 µM (inactive) | 33.8 µM (inactive) |  | 23.6 µM (inactive) | 23.2 µM (inactive) | 67.3 µM (inactive) | 79.8 µM (inactive) | 46.1 µM (inactive) | 8.07 µM (inactive)
C=CC(=O)NC(O)(C(=O)OCC)C(F)(F)F (configuration not stated) |  |  | > 100 µM (inactive) | > 100 µM (inactive) | > 100 µM (inactive) | > 100 µM (inactive) | > 100 µM (inactive) | > 100 µM (inactive) | > 100 µM (inactive) | > 100 µM (inactive) | > 100 µM (inactive) | > 100 µM (inactive) | > 100 µM (inactive) | > 100 µM (inactive) | 64.4 µM (inactive)
Nc1cc2c(nc3c4ccccc4c(N)cc3[n+]2-c2cccc3ccccc23)c2ccccc12.Nc1cc2c(nc3c4ccccc4ccc3[n+]2-c2cccc3ccccc23)c2ccccc12 | 1.21 µM (inactive) | 3.48 µM (inactive) | 1.39 µM (inactive) | 4.11 µM (inactive) | 0.229 µM (active) |  | 1.36 µM (inactive) | 1.71 µM (inactive) | 1.87 µM (inactive) | 8.18 µM (inactive) | 0.146 µM (active) | 4.32 µM (inactive) | 0.893 µM (active) | 1.15 µM (inactive) | 1.24 µM (inactive)
